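Results reflect a 48-hour exposure of cells in 96-well plates to compound at five concentrations. At the GI50, growth is halved.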 The source made the active and inactive calls. Cut-off read from the data, not from the text of the source: active = GI50 up to about 1.1 µM and inactive = higher.
How the values were obtained:
Experiment in all cases: inhibition of tumour cell growth, NCI panel, 48 h
HT-29 = tested on: HT-29
HOP-18 = tested on: HOP-18
SNB-75 = tested on: SNB-75
KM12 = tested on: KM12
DMS-273 = tested on: DMS-273
DMS-114 = tested on: DMS-114
COLO 205 = tested on: COLO 205
XF498 = tested on: XF498
HL-60 = tested on: HL-60
NCI-H460 = tested on: NCI-H460
DLD-1 = tested on: DLD-1
NCI-H23 = tested on: NCI-H23
NCI-H226 = tested on: NCI-H226
UACC-62 = tested on: UACC-62
CAKI-1 = tested on: CAKI-1
MDA-MB-231 = tested on: MDA-MB-231
MDA-MB-435 = tested on: MDA-MB-435
PC-3 = tested on: PC-3
Hs-578T = tested on: Hs-578T
T47D = tested on: T47D

Structure (SMILES)	GI50 (HT-29)	GI50 (HOP-18)	GI50 (SNB-75)	GI50 (KM12)	GI50 (DMS-273)	GI50 (DMS-114)	GI50 (COLO 205)	GI50 (XF498)	GI50 (HL-60)	GI50 (NCI-H460)	GI50 (DLD-1)	GI50 (NCI-H23)	GI50 (NCI-H226)	GI50 (UACC-62)	GI50 (CAKI-1)	GI50 (MDA-MB-231)	GI50 (MDA-MB-435)	GI50 (PC-3)	GI50 (Hs-578T)	GI50 (T47D)
CCCC[S+]([O-])CC(CO)NC(=O)/C=C/c1c(C)[nH]c(=O)[nH]c1=O (stereo not drawn)	14.8 µM (inactive)	31.6 µM (inactive)	6.85 µM (inactive)	5.64 µM (inactive)	9.75 µM (inactive)	6.41 µM (inactive)	16.7 µM (inactive)	4.18 µM (inactive)	7.23 µM (inactive)	3.12 µM (inactive)	12.1 µM (inactive)	7.98 µM (inactive)	11.7 µM (inactive)	7.52 µM (inactive)	18.9 µM (inactive)					
N/C(=N\O)N/N=C\c1ccc(O)c(O)c1O	11.1 µM (inactive)	> 100 µM (inactive)	17.3 µM (inactive)	26.7 µM (inactive)	13.6 µM (inactive)	21.2 µM (inactive)	12.9 µM (inactive)	> 100 µM (inactive)	17.2 µM (inactive)	17.1 µM (inactive)	23.8 µM (inactive)	24.4 µM (inactive)	39.1 µM (inactive)	17.3 µM (inactive)	29.4 µM (inactive)					
S=c1sc2c(s1)SC(c1ccccc1)CS2 (stereo not drawn)	> 100 µM (inactive)	> 100 µM (inactive)	> 45 µM (inactive)	> 100 µM (inactive)	> 100 µM (inactive)	> 47.9 µM (inactive)	> 100 µM (inactive)		> 51.3 µM (inactive)	> 100 µM (inactive)	> 100 µM (inactive)	> 100 µM (inactive)	> 100 µM (inactive)	> 100 µM (inactive)	1 µM (active)					
CCOC(=O)C(O)(NC(=O)c1ccccc1F)C(F)(F)F (stereo not drawn)	> 100 µM (inactive)		> 100 µM (inactive)	> 100 µM (inactive)			> 100 µM (inactive)		> 100 µM (inactive)			> 100 µM (inactive)	> 100 µM (inactive)	> 100 µM (inactive)	> 100 µM (inactive)	2.69 µM (inactive)	> 100 µM (inactive)	> 100 µM (inactive)	> 100 µM (inactive)	> 100 µM (inactive)
COc1cc([N+](=O)[O-])ccc1N1C(=O)C2c3[nH]c4ccccc4c3C3CCC(C(C)(C)C)CC3C2C1=O (stereo not drawn)	88.9 µM (inactive)			> 100 µM (inactive)			> 100 µM (inactive)		> 100 µM (inactive)	18.9 µM (inactive)		31 µM (inactive)	> 100 µM (inactive)	19.6 µM (inactive)	2.04 µM (inactive)	14.7 µM (inactive)	17.4 µM (inactive)	38.6 µM (inactive)	5.6 µM (inactive)	
CCOC(=O)C1=C(C)NC(=O)N([N+](=O)[O-])C1c1ccccc1C(F)(F)F (stereo not drawn)	75.2 µM (inactive)						> 100 µM (inactive)		55.2 µM (inactive)	> 100 µM (inactive)		> 100 µM (inactive)	> 100 µM (inactive)	49.4 µM (inactive)	23.1 µM (inactive)	> 100 µM (inactive)	45.1 µM (inactive)	33.3 µM (inactive)	70.3 µM (inactive)	35.4 µM (inactive)
CCOC(=O)C1=NN(c2ccc(C)cc2)C2=CC(C)=NN(C)C(=S)N21	> 100 µM (inactive)		23.1 µM (inactive)	> 100 µM (inactive)			> 100 µM (inactive)		> 100 µM (inactive)	> 100 µM (inactive)		30.1 µM (inactive)		31.9 µM (inactive)	24.4 µM (inactive)	82.4 µM (inactive)	> 100 µM (inactive)	> 100 µM (inactive)	48.5 µM (inactive)	26.4 µM (inactive)
CSc1nc(NC2OCC(OC(C)=O)C(OC(C)=O)C2OC(C)=O)c(/N=C(\C)C(C)=O)c(=O)[nH]1 (stereo not drawn)	> 100 µM (inactive)	> 100 µM (inactive)	> 100 µM (inactive)	> 100 µM (inactive)	> 100 µM (inactive)	> 100 µM (inactive)	> 100 µM (inactive)	> 100 µM (inactive)	> 100 µM (inactive)	> 100 µM (inactive)	> 100 µM (inactive)	> 100 µM (inactive)	0.164 µM (active)		> 100 µM (inactive)					
COc1ccc([C@H]2c3cc4c(cc3OC(O)(CO)[C@H]2C(=O)O)OCO4)c(OC)c1.COc1ccc([C@H]2c3cc4c(cc3OC3(O)COC(=O)[C@@H]23)OCO4)c(OC)c1 (stereo partly drawn)	> 100 µM (inactive)	> 100 µM (inactive)	43.5 µM (inactive)	> 100 µM (inactive)	> 100 µM (inactive)	> 100 µM (inactive)	> 100 µM (inactive)	> 100 µM (inactive)	45.6 µM (inactive)	> 100 µM (inactive)	91.8 µM (inactive)	> 100 µM (inactive)	> 100 µM (inactive)	41.5 µM (inactive)						
COS(=O)c1cc(Cl)cc(Cl)c1O (stereo not drawn)	> 100 µM (inactive)		87.7 µM (inactive)	> 100 µM (inactive)		> 100 µM (inactive)		> 100 µM (inactive)	> 100 µM (inactive)	> 100 µM (inactive)	> 100 µM (inactive)	> 100 µM (inactive)		> 100 µM (inactive)						
O=Nn1c2ccccc2c2cc([N+](=O)[O-])ccc21	18 µM (inactive)		7.23 µM (inactive)	17.5 µM (inactive)			34.3 µM (inactive)		> 100 µM (inactive)	18 µM (inactive)		17.3 µM (inactive)		16 µM (inactive)	16.4 µM (inactive)	18.9 µM (inactive)	17.1 µM (inactive)	18.4 µM (inactive)	31.7 µM (inactive)	31.1 µM (inactive)
O=C1c2cc3c(cc2CC1Cc1ccc2c(c1)CCC2)CCC3 (stereo not drawn)	40 µM (inactive)		13.4 µM (inactive)	> 100 µM (inactive)			25 µM (inactive)		66.2 µM (inactive)	34.4 µM (inactive)		44.7 µM (inactive)	24.2 µM (inactive)	52 µM (inactive)		26.4 µM (inactive)	76 µM (inactive)	72.9 µM (inactive)	32.4 µM (inactive)	10.9 µM (inactive)
CC1(C)OCC(CO)(CO)CO1	> 100 µM (inactive)		> 100 µM (inactive)	> 100 µM (inactive)			> 100 µM (inactive)		> 100 µM (inactive)	> 100 µM (inactive)		> 100 µM (inactive)	> 100 µM (inactive)			> 100 µM (inactive)	> 100 µM (inactive)	> 100 µM (inactive)	> 100 µM (inactive)	> 100 µM (inactive)
COc1ccc(C(=O)C2CC3(CCC2(O)c2ccc(OC)cc2)CC(=O)Nc2ccccc2C3=O)cc1 (stereo not drawn)	> 100 µM (inactive)		4.4 µM (inactive)				11.7 µM (inactive)		5.08 µM (inactive)	6.75 µM (inactive)		> 100 µM (inactive)	> 100 µM (inactive)	> 100 µM (inactive)	> 100 µM (inactive)	> 100 µM (inactive)	> 100 µM (inactive)	1.44 µM (inactive)	> 100 µM (inactive)	0.366 µM (active)
CCOC(=O)Cc1cnc(NC(NC(=O)CC)(C(F)(F)F)C(F)(F)F)s1	> 100 µM (inactive)		> 100 µM (inactive)	> 100 µM (inactive)					> 100 µM (inactive)	> 100 µM (inactive)		> 100 µM (inactive)	> 100 µM (inactive)	> 100 µM (inactive)		> 100 µM (inactive)	> 100 µM (inactive)		> 100 µM (inactive)	> 100 µM (inactive)
CNC(=O)OC(C)CN1c2ccccc2Sc2ccc(Cl)cc21 (stereo not drawn)	> 10 µM (inactive)		> 10 µM (inactive)				> 10 µM (inactive)		> 10 µM (inactive)	> 10 µM (inactive)		> 10 µM (inactive)	> 10 µM (inactive)	> 10 µM (inactive)	> 10 µM (inactive)	> 10 µM (inactive)	> 10 µM (inactive)	> 10 µM (inactive)	> 10 µM (inactive)	> 10 µM (inactive)
COc1cc(/N=N\c2cccc(S(=O)(=O)O)c2)ccc1/N=N\c1ccc(/C=C/c2ccc(-n3on3-c3ccc(/C=C/c4ccc(/N=N/c5ccc(/N=N\c6cccc(S(=O)(=O)O)c6)cc5OC)cc4S(=O)(=O)O)c(S(=O)(=O)O)c3)cc2S(=O)(=O)O)c(S(=O)(=O)O)c1	> 100 µM (inactive)	> 100 µM (inactive)	91.8 µM (inactive)	> 100 µM (inactive)	> 69.5 µM (inactive)	> 100 µM (inactive)	> 100 µM (inactive)	> 83 µM (inactive)	> 80 µM (inactive)	> 100 µM (inactive)	> 100 µM (inactive)	> 100 µM (inactive)	> 100 µM (inactive)	> 100 µM (inactive)						
COc1cc(C2c3cc4c(cc3[C@@H](Nc3ccc(Oc5ccccc5)cc3)C3COC(=O)[C@H]23)OCO4)cc(OC)c1O (stereo partly drawn)	1.74 µM (inactive)	4.47 µM (inactive)		4.57 µM (inactive)		0.597 µM (active)	1.5 µM (inactive)	5.26 µM (inactive)	0.362 µM (active)	0.0867 µM (active)	3.95 µM (inactive)	1.12 µM (inactive)	1.56 µM (inactive)	0.869 µM (active)	1.35 µM (inactive)					
Oc1nc2ccccc2c2oc3ccccc3c12	> 100 µM (inactive)		6.81 µM (inactive)	> 100 µM (inactive)			> 100 µM (inactive)			> 100 µM (inactive)		> 100 µM (inactive)	> 100 µM (inactive)	> 100 µM (inactive)	> 100 µM (inactive)	83.8 µM (inactive)	> 100 µM (inactive)	> 100 µM (inactive)	37.9 µM (inactive)	16.1 µM (inactive)
